pEC50: −log10 of the molar value. Entries after “also recorded” stand apart in the source; their conditions may differ.

Series [1] can be described thus: Pharmacokinetic studies (Example CC), plasma. The format is in vivo. As to conditions: rat, iv, rats, injected intravenously at 1 mg/Kg. Here is the method: PK studies are performed at CEREP Inc of Redmond Wash., according to their standard protocols: The plasma samples were processed using acetonitrile precipitation and analyzed by HPLC-MS or HPLC-MS/MS. Peak areas were recorded, and the concentrations of the test compound in the unknown plasma samples were determined using the respective calibration curve. The reportable linear range of the assay was determined, along with the lower limit of quantitation (LLQ).
Pharmacokinetic studies were performed according to the following protocols: The plasma samples were processed using acetonitrile precipitation and analyzed by HPLC-MS or HPLC-MS/MS. Peak areas were recorded, and the concentrations of the test compound in the unknown plasma samples were determined using the respective calibration curve. The reportable linear range of the assay was determined, along with the lower limit of quantitation (LLQ).

A further series deals with T1, Abeta 1-42 Oligomers (Homo sapiens, UniProt P05067).
T1 construct: Human amyloid peptide 1-42 is obtained from California Peptide; purchased California Peptide
T1 sequence (P05067 672-713): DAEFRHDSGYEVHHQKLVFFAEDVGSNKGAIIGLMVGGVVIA
The series can be described thus: Binding assay (Example BB): Abeta oligomer binding to neurons, image processing. The conditions noted are these: imaging processing algorithm. Here is the method: Each test compound was added to a plate followed by an addition of one or more of Abeta 1-42 Oligomers. The plates were fixed with 3.7% paraformaldehyde in phosphate buffered saline (PBS) for 15 min. The plate was then washed 3× with PBS for 5 min each. The plates were blocked at room temperature for 1 hour in 5% goat serum and 0.5% Triton X-100 (CAS number: 9002-93-1) in PBS. Primary antibodies (anti-MAP 2 polyclonal, Millipore #AB5622 and anti-Beta Amyloid 6E10 monoclonal, Convance #SIG-39300) were diluted 1:1000 in 5% goat serum with PBS. Primary antibodies were incubated either overnight at 4° C. or 1 hour at RT. The plate was then washed 3× with PBS for 5 min each. Secondary antibodies (Alex Flor 488 polyclonal, Invitrogen #A11008 and Alexa Flor 647 monoclonal, Invitrogen #A21235) were diluted 1:1000 in 5% goat serum with PBS. Secondary antibodies were incubated at RT for 1 hr. The plates were washed once with PBS. […]
Human amyloid peptide 1-42 is obtained from California Peptide, with lot-choice contingent upon quality control analysis. […] Toxicity is monitored in each image-based assay via quantification of nuclear morphology visualized with the DNA binding dye DAPI (Invitrogen). […]
Images were captured and analyzed with the Cellomics VTI automated microscope platform, using the Neuronal Profiling algorithm. […]

Series [2] relates to Abeta oligomer-induced acceleration of exocytosis in primary neurons. Kind of series: Exocytosis assay/MTT assay (Example AA). The conditions noted are these: Primary neuron. The format is cell-based, rat. Here is the method: Primary neurons from E18 Sprague-Dawley rat embryos are plated at optimized concentrations in 384 well plates in NB media (Invitrogen). Neurons are maintained in cultures for 3 weeks, with twice weekly feeding of NB media with N2 supplement (Invitrogen). A test compound is added to cells, followed by addition of Vehicle or Abeta oligomer preparations (1.5 μM), and incubated for 1 to 24 hr at 37° C. in 5% CO2. MTT reagent (3-(4,5-dimethylthizaol-2yl)-2,5diphenyl tetrazolium bromide) (Roche Molecular Biochemicals) is reconstituted in phosphate buffered saline to 5 mg/mL. 10 μL of MTT labeling reagent is added to each well and incubated at 37° C. for 1 h, then imaged.
Each assay plate is formatted so that compounds are tested with and without Abeta on each plate. […] Statistical performance of the screening plate layout are assessed, screening will be initiated if the current performance is maintained. […]
Optimal cell density is determined based on cellular response to Abeta oligomers using the exocytosis assay as a readout, and immunohistochemical analysis of the relative proportion of glia to neurons in the cultures. Cultures are monitored on a weekly basis with immunohistochemistry and image processing-based quantification to monitor the percentage of the cultures that are neurons vs. glia (Glial cells). […]
On the technique in general: Tetrazolium assays rely on reduction of a dye to a coloured formazan, in cell work by metabolically active cells.

The test system of series [3] is Abeta assemblies isolated from AD patients or normal individuals. The series can be described thus: Membrane trafficking assay with patient-derived Abeta assemblies (Example FF). The format is cell-based. As to conditions: FIG. 4. Here is the method: Abeta assemblies were isolated from patients with Alzheimer's Disease (AD) or from normal patients. The Abeta assemblies were tested for their ability to modulate membrane trafficking. […] (FIG. 4). […] Compound Example 2 has no effect on Abeta assemblies isolated from Age-matched normal individuals. (FIG. 4). […] (FIG. 4).

For series [4], the system named is Abeta oligomer-mediated memory deficits. The series can be described thus: Fear conditioning assay (Example EE). It counts as in vivo, mice. Here is the method:
Compound Example 2 was tested in an animal model of a memory-dependent behavioral task known as fear conditioning. The study protocol was designed based on published protocols (See e.g. Puzzo D, Privitera L, Leznik E, Fà M, Staniszewski A, Palmeri A, Arancio O. Picomolar amyloid-beta positively modulates synaptic plasticity and memory in hippocampus. J Neurosci. 2008 Dec. 31; 28(53)14537-45.). The formation of contextual memories is dependent upon the integrity of medial temporal lobe structures such as the hippocampus. In this assay mice were trained to remember that a particular salient context (conditioned stimulus; CS) is associated with an aversive event, in this case a mild foot shock (the unconditioned stimulus, US). Animals that show good learning will express an increase in freezing behavior when placed back into the same context. This freezing is absent in a novel context. Increased freezing in the context indicates strong hippocampal-dependent memory formation in animals. Memory tested in Fear Conditioning is sensitive to elevations of soluble Aβ. […] The fear condition model for memory was performed as described herein.

The test system of series [5] is Abeta oligomer effects on membrane trafficking in mature primary neurons. Kind of series: Primary neuron-based functional screening assay (membrane trafficking/exocytosis, Example DD). It counts as cell-based, rat. The conditions noted are these: for activity in blocking the effects of Abeta oligomers on membrane trafficking: compound added to neurons before oligomers. An excerpt:
Primary rat neurons grown for at least 3 weeks in vitro were chosen as the basis for this screening assay. […] More complex systems such as acute or organotypic brain slices are very useful but not amenable to high throughput screening. […] For this reason, primary neuronal cultures were chosen because of their ability to be used in high throughput screens and fidelity to what occurs in vivo.
(Scale bar=20 microns in FIG. 1A). […] (FIG. 1B).
The MTT assay can be used as a measure of toxicity in cultures. Yellow tetrazolium salts were endocytosed by cells and reduced to insoluble purple formazan in the endosomal pathway. The level of purple formazan was a reflection of the number of actively metabolizing cells in culture, and reduction in the amount of formazan was taken as a measure of cell death or metabolic toxicity in culture.
The exocytosis assay was adapted for use with mature primary neuronal cultures grown for 3 weeks in vitro.
Compounds were added to neurons first, then oligomers were added.
Data were the average of 3 experiments. Scale bar=20 micron in FIG. 2D.

The half-life is how long it takes for the measured level to halve. With `COc1cc(CCC(C)NCc2ccc(Cl)cc2)ccc1O` (stereo not drawn) [Compound Example 1, 4-(3-(4-chlorobenzylamino)butyl)-2-methoxyphenol], the half-life in series [1] was determined as 46 min. In addition, at Abeta 1-42 Oligomers, the “partial block of binding of the Abeta oligomer ligand to neurons” value is on record as 24%. The pEC50 in series [2] (MTT assay, primary rat neurons, Abeta oligomers 1.5 μM, read-out: EC50 for block of Abeta oligomer-induced acceleration of exocytosis) is 5.00.

Regarding `COc1cc(CCC(C)NCc2ccc(C(F)(F)F)cc2)ccc1O` (stereo not drawn) [Compound Example 2, 4-(3-(4-(trifluoromethyl)benzylamino)butyl)-2-methoxyphenol], in series [3] (IMW (10-100 KDa) assemblies from AD patients), the “effect on trafficking effects of AD-brain derived Abeta assemblies” value is on record as “significantly blocked”. For the same molecule, the “effect on Abeta assemblies isolated from Age-matched normal individuals” value in series [3] (IMW assemblies from normal individuals) was “no effect”. Also, in series [4] (2 pmol dose, given prior to Abeta (200 nM), contextual fear conditioning, FIG. 3 bar d), the “effect on Abeta oligomer-mediated memory deficits” value is listed as “completely blocked”. For the same molecule, the “block of oligomer effects on memory across doses” value in series [4] (administered prior to Abeta oligomer administration) is recorded as “blocked oligomer effects on memory in a dose-dependent manner”. The adverse behavioral changes entry in series [4] (any dose) is “No adverse behavioral changes were observed”. The “effect of compound alone on memory” value in series [4] (no Abeta, data not shown) is on record as “No effect”. Moreover, the pEC50 in series [5] (Rattus norvegicus, Primary neuron, 504 h, FIG. 2B, primary neurons 3 weeks in vitro, read-out: EC50 for inhibition of oligomer effects on membrane trafficking) is 5.15. The “activity in blocking the effects of Abeta oligomers on membrane trafficking” value (“activity in blocking the effects” below) in series [5] is “inhibits oligomer effects on membrane trafficking; also recorded: effective”.

`C[C@]12N[C@H](Cc3ccccc31)c1ccccc12` [MK-801, reference compound]: the “activity in blocking the effects” value in series [5] is given as “none were active”.

One may read the inhibition as the change of the read-out against control, counted positive when it falls. `CC12CC3CC(C)(C1)CC(N)(C3)C2` [Memantine, memantine, reference compound]: in series [2] (Rattus norvegicus, 28 μM memantine, control on each plate, read-out: inhibition of oligomer effects), the inhibition at 28 µM stood at 50%.

For `C[N+](C)(C)CCCCCC[N+](C)(C)C` [hexamethonium bromide, reference compound], in series [5], the “activity in blocking the effects” value is “none were active”.

With `O[C@H]1[C@H](O)[C@@H](O)[C@H](O)[C@@H](O)[C@@H]1O` [scyllo-inositol, reference compound], the “activity in blocking the effects” value in series [5] is “none were active”.
